Measurements from US10561145B2, “Fused bicyclic heterocycle derivatives as pesticides” (Bayer CropScience Aktiengesellschaft, priority 2016, dated 2020).
Read-outs that look alike come from different tables or passages of the source.

What was measured:
[1] = log P by HPLC on a reversed-phase column (C18), EEC Directive 79/831 Annex V.A8; assay type: physicochemical; settings: 55° C.
Method: The log P values are measured according to EEC Directive 79/831 Annex V.A8 by HPLC (high-performance liquid chromatography) on a reversed-phase column (C18). Temperature: 55° C. The LC-MS determination in the acidic range is carried out at pH 2.7 using the mobile phases 0.1% aqueous formic acid and acetonitrile (contains 0.1% formic acid); linear gradient from 10% acetonitrile to 95% acetonitrile. Called log P (HCOOH) or log P[a] in the table. The LC-MS determination in the neutral range is carried out at pH 7.8 using the mobile phases 0.001 molar aqueous ammonium bicarbonate solution and acetonitrile; linear gradient from 10% acetonitrile to 95% acetonitrile. Called log P (neutral) or log P[n] in the table. Calibration is carried out using unbranched alkan-2-ones (having 3 to 16 carbon atoms) with known log P values (log P values determined on the basis of the retention times by linear interpolation between two successive alkanones).

Myzus persicae [2] = assay: Myzus persicae - oral test; assay type: in vivo; settings: application rate 4 ppm, after 5 days, green peach aphids, mixed population, oral uptake
Method: Myzus persicae—Oral Test Solvent: 100 parts by weight of acetone To produce a suitable preparation of active compound, 1 part by weight of active compound is dissolved using the specified parts by weight of solvent and made up with water until the desired concentration is attained. 50 μl of the active compound preparation are transferred into microtitre plates and made up to a final volume of 200 μl with 150 μl of IPL41 insect medium (33%+15% sugar). Subsequently, the plates are sealed with parafilm, which a mixed population of green peach aphids (Myzus persicae) within a second microtitre plate is able to puncture and imbibe the solution through it. After 5 days, the efficacy in % is determined. 100% means that all the aphids have been killed; 0% means that no aphids have been killed.

Myzus persicae [3] = assay: Myzus persicae - spray test; assay type: in vivo; settings: application rate 20 g/ha, after 5 days, sprayed Chinese cabbage leaf discs, all stages of green peach aphid
Method: Myzus persicae—Spray Test Solvent: 78 parts by weight of acetone • • 1.5 parts by weight of dimethylformamide Emulsifier: alkylaryl polyglycol ether To produce a suitable active compound preparation, 1 part by weight of active compound is dissolved with the specified parts by weight of solvent and made up with water containing an emulsifier concentration of 1000 ppm until the desired concentration is attained. To produce further test concentrations, the formulation is diluted with emulsifier-containing water. Discs of Chinese cabbage leaves (Brassica pekinensis) infested by all stages of the green peach aphid (Myzus persicae) are sprayed with an active compound formulation of the desired concentration. After 5 days, the efficacy in % is determined. 100% means that all the aphids have been killed; 0% means that no aphids have been killed.

Phaedon cochleariae = Phaedon cochleariae - spray test; assay type: in vivo; settings: application rate 100 g/ha, after 7 days, sprayed Chinese cabbage leaf discs, mustard beetle larvae
Method: Phaedon cochleariae—Spray Test
Solvent: 78.0 parts by weight of acetone • • 1.5 parts by weight of dimethylformamide
Emulsifier: alkylaryl polyglycol ether
To produce a suitable active compound preparation, 1 part by weight of active compound is dissolved with the specified parts by weight of solvent and made up with water containing an emulsifier concentration of 1000 ppm until the desired concentration is attained. To produce further test concentrations, the formulation is diluted with emulsifier-containing water.
Discs of Chinese cabbage leaves (Brassica pekinensis) are sprayed with an active compound formulation of the desired concentration and, after drying, populated with larvae of the mustard beetle (Phaedon cochleariae).
After 7 days, the efficacy in % is determined. 100% means that all the beetle larvae have been killed; 0% means that no beetle larvae have been killed.

[4] = acidic range, pH 2.7, 0.1% aqueous formic acid/acetonitrile gradient, read-out: log P[a] (log P (HCOOH))
[5] = neutral range, pH 7.8, 0.001 molar aqueous ammonium bicarbonate/acetonitrile gradient, read-out: log P[n] (log P (neutral))

SMILES	chromatographic logP [1, 4]	chromatographic logP [1, 5]	efficacy in % (aphids killed) (Myzus persicae [2]) [%]	efficacy in % (aphids killed) (Myzus persicae [3]) [%]	efficacy in % (beetle larvae killed) (Phaedon cochleariae) [%]
CCSc1c(-c2nc3cc(C(F)(F)F)ncc3n2C)ncc2ccsc12 [Example I-6]	2.95	2.85	–	–	–
CCS(=O)(=O)c1c(-c2nc3cc(C(F)(F)F)ncc3n2C)ncc2sccc12 [Example I-8]	2.3	2.28	100	100	–
CC[S+]([O-])c1c(-c2nc3cc(C(F)(F)F)cnc3n2C)ncc2ncsc12 (centres unmarked) [Example I-2, 7-(Ethylsulfinyl)-6-[3-methyl-6-(trifluoromethyl)-3H-imidazo[4,5-b]pyridin-2-yl][1,3]thiazolo[4,5-c]pyridine]	3.09	2.98	–	–	–
CCS(=O)(=O)c1c(-c2nc3cc(C(F)(F)F)ncc3n2C)ncc2ccsc12 [Example I-5]	2.53	2.4	–	90	–
CCOC(=O)c1ncc2ncsc2c1SCC [XL-1, Ethyl 7-(ethylsulfanyl)[1,3]thiazolo[4,5-c]pyridine-6-carboxylate]	2.23	2.17	–	–	–
CCS(=O)(=O)c1c(-c2nc3cc(C(F)(F)F)cnc3n2C)ncc2sccc12 [Example I-7]	2.56	2.72	100	100	–
CCSc1c(C(=O)O)ncc2ncsc12 [XLI-1, 7-(Ethylsulfanyl)[1,3]thiazolo[4,5-c]pyridine-6-carboxylic acid]	0.88	–	–	–	–
CCS(=O)(=O)c1c(-c2nc3cc(C(F)(F)F)cnc3n2C)ncc2ncsc12 [Example I-1, 7-(Ethylsulfonyl)-6-[3-methyl-6-(trifluoromethyl)-3H-imidazo[4,5-b]pyridin-2-yl][1,3]thiazolo[4,5-c]pyridine]	2.6	2.53	100	90	83
CCSc1c(-c2nc3cc(C(F)(F)F)cnc3n2C)ncc2ncsc12 [Example I-3, 7-(Ethylsulfanyl)-6-[3-methyl-6-(trifluoromethyl)-3H-imidazo[4,5-b]pyridin-2-yl][1,3]thiazolo[4,5-c]pyridine]	2.96	2.94	–	–	–
CCOC(=O)c1ncc2ncsc2c1OS(=O)(=O)C(F)(F)F [XXXIV-1, Ethyl 7-{[(trifluoromethyl)sulfonyl]oxy}[1,3]thiazolo[4,5-c]pyridine-6-carboxylate]	2.58	2.57	–	–	–
CCS(=O)(=O)c1c(-c2nc3cc(C(F)(F)F)cnc3n2C)ncc2ccsc12 [Example I-4]	2.88	2.82	100	90	100
